Measured values as given in US20080032953A1, “Method For Inhibiting Prebiotic Effect Of Food Proteins” (Royal Canin SA,, priority 2004, published 2008).

Key:
aerobic microflora [1] = test: Growth of canine oral flora in artificial saliva with soya hydrolysate, with or without tripolyphosphate: aerobic count; format: cell-based, dog; details: for Aerobic microflora CFU/ml, 24 hours / Aerobic microflora CFU/ml, 48 hours: Experiment 6, canine flora
Protocol: (§1) For all the experiments, the bacterial microflora of the oral cavity was removed, kept in a conservation medium, and then cultured in artificial saliva according to the following protocol:
(§2) When subsequently used, each tube is thawed at ambient temperature and then incubated for 12 hours at 37° C., in a jar under CO2. The aerobic and anaerobic bacteria are counted according to the methods described hereinafter. The content of each tube is subsequently diluted with the sterile conservation medium so as to have an inoculum of 5000 (3.70 log10) revivable microorganisms in 0.2 ml.
(§3) The aerobic microflora is cultured and then counted on a trypticase soy medium (Biokar) incubated at 37° C. for 48 hours.
(§4) The basic artificial saliva is prepared according to table 31 on page 244 of the manual Biological Handbooks—Metabolism, compiled and edited by Philip L. Altman and Dorothy S. Dittmer, published by Federation of American Societies for Experimental Biology, 1968.
(§5) This basic saliva is supplemented with L-cysteine at a rate of 0.5 g/liter in order to lower its redox potential so as to be able to grow therein both the aerobic bacterial microflora and the anaerobic bacterial microflora. The whole will subsequently be referred to as “artificial saliva”.
(§6) The artificial saliva is dispensed into test tubes at a rate of 20 ml per tube. Each tube is supplemented or not supplemented with the protein, in the presence or absence of the phosphate to be tested. Each treatment is composed of two tubes.
(§7) The whole is autoclaved at 110° C. for 15 minutes.
(§8) Each tube is subsequently inoculated with 0.2 ml of inoculum described above. The whole is incubated in an incubator at 37° C., with shaking.
(§9) After 24, 48 or 72 hours of incubation, the aerobic flora and the anaerobic flora are counted according to the methods described above.
(§10) The result of each treatment is the mean of the counts of two test tubes, expressed as log10 of C.F.U. (Colony Forming Units) per ml of artificial saliva.
(§11) In this assay, the inhibitory effect of sodium tripolyphosphate incorporated at 0, 0.5, 1, 1.5 and 2%, on the prebiotic effect of a dehydrated soya hydrolysate (Nurish 1500 IP, ND from Solea Company, having a titer of 83% of total nitrogenous matter) incorporated into the artificial saliva at 0.5 and at 1%, was tested.
(§12) In this assay, oral microflora taken from a dog were used.

aerobic microflora [2] = test: Growth of cat oral bacterial microflora in artificial saliva with protein, with or without phosphate: aerobic count; format: cell-based
Protocol: as §1
(§13) Two male cats of “European” race, weighing approximately 5.50 kg, were anesthetized with 0.3 ml of a solution of medetomidine at 0.085 g/100 ml (Domitor, ND) and 0.26 ml of a solution of ketamine at […] (Imalgene 1000, ND).
(§14) In each animal thus immobilized, the saliva was sterilely suctioned with a pipette and the base of the teeth, the gums and the gum pockets were scraped with the back of a sterile scalpel.
(§15) All the samples were transferred and well-diluted in 100 ml of a sterile conservation medium (thiocolate resazurin medium from Biokar supplemented with 25% of glycerol). The conservation medium containing the samples was transferred into tubes with microbeads (Cryobilles, ND from AES). These tubes were then incubated for 6 hours in an incubator at 37° C., in a jar under CO2, before being frozen for subsequent use.
as §2, §3, §4, §5, §6, §7, §8, §9, §10

anaerobic microflora [3] = test: Growth of canine oral flora in artificial saliva with soya hydrolysate, with or without tripolyphosphate: anaerobic count; format: cell-based, dog; details: for Anaerobic microflora CFU/ml, 24 hours / Anaerobic microflora CFU/ml, 48 hours: Experiment 6, canine flora
Protocol: as §1, §2
(§16) The anaerobic microflora is cultured and then counted on a Schaedler medium (Biokar) supplemented with 5% of sterile defibrinated sheep blood, incubated at 37° C., in a jar under CO2, for 48 hours.
as §4, §5, §6, §7, §8, §9, §10, §11, §12

anaerobic microflora [4] = test: Growth of cat oral bacterial microflora in artificial saliva with protein, with or without phosphate: anaerobic count; format: cell-based
Protocol: as §1, §13, §14, §15, §2, §16, §4, §5, §6, §7, §8, §9, §10

[5] = tripolyphosphate 0.5%, soya hydrolysate 0.5%
[6] = tripolyphosphate 0.5%, soya hydrolysate 1%
[7] = tripolyphosphate 1%, soya hydrolysate 0.5%
[8] = tripolyphosphate 1%, soya hydrolysate 1%
[9] = tripolyphosphate 1.5%, soya hydrolysate 0.5%
[10] = tripolyphosphate 1.5%, soya hydrolysate 1%
[11] = tripolyphosphate 2%, soya hydrolysate 0.5%
[12] = tripolyphosphate 2%, soya hydrolysate 1%
[13] = Experiment 6, soya hydrolysate 0.5 and 1%
[14] = Experiment 6, tripolyphosphate incorporation rates greater than or equal to 1%
[15] = Experiment 4, MP9007 1%, tripolyphosphate 0.5%
[16] = Experiment 4, MP9007 1%, tripolyphosphate 1%
[17] = Experiment 4, MP9007 1%, tripolyphosphate 1.5%
[18] = Experiment 4, MP9007 1%, tripolyphosphate 2%
[19] = Experiment 4, sodium tripolyphosphate 0.5-2%, MP9007 1%
[20] = Experiment 5, regardless of the amount incorporated (0.5-2%), soya hydrolysate 1%
[21] = Experiment 5, soya hydrolysate 1%, tripolyphosphate 0.5%
[22] = Experiment 5, soya hydrolysate 1%, tripolyphosphate 1%
[23] = Experiment 5, soya hydrolysate 1%, tripolyphosphate 1.5%
[24] = Experiment 5, soya hydrolysate 1%, tripolyphosphate 2%

## O=P(O)(O)OP(=O)(O)OP(=O)(O)O [sodium tripolyphosphate]
Aerobic microflora [1]; [5]
  Aerobic microflora CFU/ml, 24 hours: 7.10 log10 CFU/ml
  Aerobic microflora CFU/ml, 48 hours: 7.54 log10 CFU/ml
Aerobic microflora [1]; [6]
  Aerobic microflora CFU/ml, 24 hours: 7.50 log10 CFU/ml
  Aerobic microflora CFU/ml, 48 hours: 7.51 log10 CFU/ml
Aerobic microflora [1]; [7]
  Aerobic microflora CFU/ml, 24 hours: <3 log10 CFU/ml
  Aerobic microflora CFU/ml, 48 hours: <3 log10 CFU/ml
Aerobic microflora [1]; [8]
  Aerobic microflora CFU/ml, 24 hours: <3 log10 CFU/ml
  Aerobic microflora CFU/ml, 48 hours: 3.17 log10 CFU/ml
Aerobic microflora [1]; [9]
  Aerobic microflora CFU/ml, 24 hours: <3 log10 CFU/ml
  Aerobic microflora CFU/ml, 48 hours: <3 log10 CFU/ml
Aerobic microflora [1]; [10]
  Aerobic microflora CFU/ml, 24 hours: <3 log10 CFU/ml
  Aerobic microflora CFU/ml, 48 hours: <3 log10 CFU/ml
Aerobic microflora [1]; [11]
  Aerobic microflora CFU/ml, 24 hours: <3 log10 CFU/ml
  Aerobic microflora CFU/ml, 48 hours: <3 log10 CFU/ml
Aerobic microflora [1]; [12]
  Aerobic microflora CFU/ml, 24 hours: <3 log10 CFU/ml
  Aerobic microflora CFU/ml, 48 hours: <3 log10 CFU/ml
Aerobic microflora [1]; [13]
  Inhibition of the prebiotic effect of soya hydrolysate, canine aerobic oral microflora (in words): inhibits the prebiotic effect
Aerobic microflora [1]; [14]
  Inhibitory effect, canine aerobic oral microflora (in words): particularly substantial
Aerobic microflora [2]; [15]
  Aerobic microflora CFU/ml, 24 hours: 5.50 log10 CFU/ml
  Aerobic microflora CFU/ml, 48 hours: 6.90 log10 CFU/ml
Aerobic microflora [2]; [16]
  Aerobic microflora CFU/ml, 24 hours: 4.81 log10 CFU/ml
  Aerobic microflora CFU/ml, 48 hours: 6.49 log10 CFU/ml
Aerobic microflora [2]; [17]
  Aerobic microflora CFU/ml, 24 hours: 4.84 log10 CFU/ml
  Aerobic microflora CFU/ml, 48 hours: 6.83 log10 CFU/ml
Aerobic microflora [2]; [18]
  Aerobic microflora CFU/ml, 24 hours: <4.00 log10 CFU/ml
  Aerobic microflora CFU/ml, 48 hours: <4.00 log10 CFU/ml
Aerobic microflora [2]; [19]
  Inhibition of the prebiotic effect of the MP9007 protein, aerobic microflora (in words): significantly inhibits
Aerobic microflora [2]; [20]
  Inhibition of the prebiotic effect of soya hydrolysate, aerobic microflora (in words): virtually inhibits the entire prebiotic effect
Aerobic microflora [2]; [21]
  Aerobic microflora CFU/ml, 24 hours: <4.00 log10 CFU/ml
  Aerobic microflora CFU/ml, 48 hours: <4.00 log10 CFU/ml
Aerobic microflora [2]; [22]
  Aerobic microflora CFU/ml, 24 hours: <4.00 log10 CFU/ml
  Aerobic microflora CFU/ml, 48 hours: <4.00 log10 CFU/ml
Aerobic microflora [2]; [23]
  Aerobic microflora CFU/ml, 24 hours: <4.00 log10 CFU/ml
  Aerobic microflora CFU/ml, 48 hours: <4.00 log10 CFU/ml
Aerobic microflora [2]; [24]
  Aerobic microflora CFU/ml, 24 hours: <4.00 log10 CFU/ml
  Aerobic microflora CFU/ml, 48 hours: <4.00 log10 CFU/ml
Anaerobic microflora [3]; [5]
  Anaerobic microflora CFU/ml, 24 hours: 1.92 log10 CFU/ml
  Anaerobic microflora CFU/ml, 48 hours: 5.80 log10 CFU/ml
Anaerobic microflora [3]; [6]
  Anaerobic microflora CFU/ml, 24 hours: 6.30 log10 CFU/ml
  Anaerobic microflora CFU/ml, 48 hours: 6.24 log10 CFU/ml
Anaerobic microflora [3]; [7]
  Anaerobic microflora CFU/ml, 24 hours: <3 log10 CFU/ml
  Anaerobic microflora CFU/ml, 48 hours: <3 log10 CFU/ml
Anaerobic microflora [3]; [8]
  Anaerobic microflora CFU/ml, 24 hours: <3 log10 CFU/ml
  Anaerobic microflora CFU/ml, 48 hours: 3.30 log10 CFU/ml
Anaerobic microflora [3]; [9]
  Anaerobic microflora CFU/ml, 24 hours: <3 log10 CFU/ml
  Anaerobic microflora CFU/ml, 48 hours: <3 log10 CFU/ml
Anaerobic microflora [3]; [10]
  Anaerobic microflora CFU/ml, 24 hours: <3 log10 CFU/ml
  Anaerobic microflora CFU/ml, 48 hours: <3 log10 CFU/ml
Anaerobic microflora [3]; [11]
  Anaerobic microflora CFU/ml, 24 hours: <3 log10 CFU/ml
  Anaerobic microflora CFU/ml, 48 hours: <3 log10 CFU/ml
Anaerobic microflora [3]; [12]
  Anaerobic microflora CFU/ml, 24 hours: <3 log10 CFU/ml
  Anaerobic microflora CFU/ml, 48 hours: <3 log10 CFU/ml
Anaerobic microflora [3]; [13]
  Inhibition of the prebiotic effect of soya hydrolysate, canine anaerobic oral microflora (in words): inhibits the prebiotic effect
Anaerobic microflora [3]; [14]
  Inhibitory effect, canine anaerobic oral microflora (in words): particularly substantial
Anaerobic microflora [4]; [15]
  Anaerobic microflora CFU/ml, 24 hours: 5.41 log10 CFU/ml
  Anaerobic microflora CFU/ml, 48 hours: 7.04 log10 CFU/ml
Anaerobic microflora [4]; [16]
  Anaerobic microflora CFU/ml, 24 hours: <4.00 log10 CFU/ml
  Anaerobic microflora CFU/ml, 48 hours: 6.36 log10 CFU/ml
Anaerobic microflora [4]; [17]
  Anaerobic microflora CFU/ml, 24 hours: 4.98 log10 CFU/ml
  Anaerobic microflora CFU/ml, 48 hours: 6.82 log10 CFU/ml
Anaerobic microflora [4]; [18]
  Anaerobic microflora CFU/ml, 24 hours: <4.00 log10 CFU/ml
  Anaerobic microflora CFU/ml, 48 hours: <4.00 log10 CFU/ml
Anaerobic microflora [4]; [19]
  Inhibition of the prebiotic effect of the MP9007 protein, anaerobic microflora (in words): significantly inhibits
Anaerobic microflora [4]; [20]
  Inhibition of the prebiotic effect of soya hydrolysate, anaerobic microflora (in words): virtually inhibits the entire prebiotic effect
Anaerobic microflora [4]; [21]
  Anaerobic microflora CFU/ml, 24 hours: <4.00 log10 CFU/ml
  Anaerobic microflora CFU/ml, 48 hours: <4.00 log10 CFU/ml
Anaerobic microflora [4]; [22]
  Anaerobic microflora CFU/ml, 24 hours: <4.00 log10 CFU/ml
  Anaerobic microflora CFU/ml, 48 hours: <4.00 log10 CFU/ml
Anaerobic microflora [4]; [23]
  Anaerobic microflora CFU/ml, 24 hours: <4.00 log10 CFU/ml
  Anaerobic microflora CFU/ml, 48 hours: <4.00 log10 CFU/ml
Anaerobic microflora [4]; [24]
  Anaerobic microflora CFU/ml, 24 hours: <4.00 log10 CFU/ml
  Anaerobic microflora CFU/ml, 48 hours: <4.00 log10 CFU/ml
